Experimental data from patent US8552018B2, “Substituted tricyclic compounds as protein kinase inhibitors” (Arizona Board of Regents on behalf of the University of …, priority 2003, dated 2013).
Where two headings read alike, the source gives them in different places.

Key:
aurora-2 kinase = target: T1, aurora-2 kinase (Homo sapiens, UniProt O14965); assay: Aurora-2 kinase inhibition assay (Kinase-Glo); format: biochemical; conditions: for degree of inhibition of aurora-2 kinase activity (rank among tested compounds): 20 μM, FIG. 10; for IC50: aurora-2 kinase, FIG. 11
T1 construct: purchased Imgenex, San Diego, Calif; host or cells: sf9 cells
T1 sequence (O14965 1-403): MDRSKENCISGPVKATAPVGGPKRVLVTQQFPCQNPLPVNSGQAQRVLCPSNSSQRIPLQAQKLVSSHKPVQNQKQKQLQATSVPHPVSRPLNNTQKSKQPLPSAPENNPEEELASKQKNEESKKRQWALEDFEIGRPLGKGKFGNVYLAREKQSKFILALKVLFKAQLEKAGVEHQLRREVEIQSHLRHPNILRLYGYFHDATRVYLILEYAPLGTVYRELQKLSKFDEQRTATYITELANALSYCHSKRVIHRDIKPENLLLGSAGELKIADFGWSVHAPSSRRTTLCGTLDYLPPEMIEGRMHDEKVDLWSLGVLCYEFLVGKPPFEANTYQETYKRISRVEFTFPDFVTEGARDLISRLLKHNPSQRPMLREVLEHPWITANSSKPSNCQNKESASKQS
Method: In this assay kinase activity is determined by quantifying the amount of ATP remaining in solution following the kinase reaction by measuring the light units (LU) produced by luciferase using a luminometer. Percent inhibition was determined for individual compounds by comparing luminometer readings of drug-treated reactions to controls containing no drug (DMSO control) and no Aurora-2 enzyme (ATP control) in the following equation: […]
In a 50 μl reaction, recombinant aurora-2 kinase produced in sf9 cells (Imgenex, San Diego, Calif.) was incubated at 30° C. for two hours with 62.5 μM Kemptide (Calbiochem, San Diego, Calif.), 3 μM ATP (Invitrogen, Carlsbad, Calif.) and kinase reaction buffer (40 mM Tris-HCl, 10 mM MgCl2 and 0.1 μg/μl bovine serum albumin (BSA)). This reaction was carried out in the presence of drug substances, which had been previously diluted to desired concentrations in DMSO. After incubation, 50 μl of Kinase-Glo® (Promega, Inc., Madison, Wis.) solution was added to each reaction mixture and allowed to equilibrate for 10 minutes at room temperature. Kinase-Glo solution contains luciferase enzyme and luciferin, which react with ATP to produce light. Kinase activity is determined by quantifying the amount of ATP remaining in solution following the kinase reaction by measuring the light units (LU) produced by luciferase using a luminometer (PerkinElmer, Boston, Mass.).

[1] = test system: Rad51 in SF-767 cancer cells; assay: Western blotting for Rad51 after IR; format: cell-based; conditions: SF-767 cells pretreated with MP470
c-met = c-met (Homo sapiens, UniProt P08581); assay: Activity against c-met (stated); format: biochemical
c-met, sequence (P08581 25-1390): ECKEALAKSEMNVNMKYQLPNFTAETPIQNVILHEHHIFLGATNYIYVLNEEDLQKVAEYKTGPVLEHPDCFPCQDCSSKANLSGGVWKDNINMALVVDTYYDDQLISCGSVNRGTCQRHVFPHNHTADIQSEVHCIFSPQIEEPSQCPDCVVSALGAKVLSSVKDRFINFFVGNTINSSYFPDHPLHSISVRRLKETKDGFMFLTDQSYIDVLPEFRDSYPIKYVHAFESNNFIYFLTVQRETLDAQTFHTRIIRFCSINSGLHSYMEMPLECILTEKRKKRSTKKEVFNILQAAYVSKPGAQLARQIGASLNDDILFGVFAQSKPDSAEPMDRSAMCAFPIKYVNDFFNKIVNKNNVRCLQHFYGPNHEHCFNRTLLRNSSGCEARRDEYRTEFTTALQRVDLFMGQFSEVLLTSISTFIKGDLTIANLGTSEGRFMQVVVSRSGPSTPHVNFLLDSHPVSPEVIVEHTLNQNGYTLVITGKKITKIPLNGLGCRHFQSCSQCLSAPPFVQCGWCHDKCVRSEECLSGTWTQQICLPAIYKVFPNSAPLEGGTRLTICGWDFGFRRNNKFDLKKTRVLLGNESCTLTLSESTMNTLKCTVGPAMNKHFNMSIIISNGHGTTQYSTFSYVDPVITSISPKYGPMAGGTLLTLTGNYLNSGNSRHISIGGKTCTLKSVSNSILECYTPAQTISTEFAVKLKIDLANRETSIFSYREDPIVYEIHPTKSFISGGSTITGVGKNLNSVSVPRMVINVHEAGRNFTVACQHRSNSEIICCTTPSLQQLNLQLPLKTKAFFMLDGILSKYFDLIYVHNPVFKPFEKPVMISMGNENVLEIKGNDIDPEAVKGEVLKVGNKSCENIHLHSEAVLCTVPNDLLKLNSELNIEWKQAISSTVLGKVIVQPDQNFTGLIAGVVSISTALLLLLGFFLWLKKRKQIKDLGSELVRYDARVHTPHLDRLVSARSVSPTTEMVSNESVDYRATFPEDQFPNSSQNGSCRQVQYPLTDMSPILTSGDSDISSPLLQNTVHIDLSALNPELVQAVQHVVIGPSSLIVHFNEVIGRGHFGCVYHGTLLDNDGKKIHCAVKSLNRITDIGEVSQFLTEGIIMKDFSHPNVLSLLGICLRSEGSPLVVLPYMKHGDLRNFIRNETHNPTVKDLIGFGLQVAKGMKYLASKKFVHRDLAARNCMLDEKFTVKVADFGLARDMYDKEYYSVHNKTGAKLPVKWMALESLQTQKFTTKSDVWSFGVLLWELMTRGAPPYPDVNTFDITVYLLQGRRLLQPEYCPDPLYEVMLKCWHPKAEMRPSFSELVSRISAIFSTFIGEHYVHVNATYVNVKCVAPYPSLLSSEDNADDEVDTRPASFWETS

mutant forms of c-Kit = assay: Activity against mutant c-Kit (stated); format: biochemical
[2] = test system: A549 non-small cell lung cancer (NSCLC) cells; assay: Flow cytometric analysis (sub-G1 peak); format: cell-based; conditions: A549, 48 hours, MP-470 alone
Method: (§1) In addition, A549 non-small cell lung cancer (NSCLC) cells and LNCaP prostate carcinoma cells were treated with MP-470 in the presence or absence of Tarceva® for 48 hours and subjected to flow cytometric analysis. Nocodazole was also included to induce a G2/M arrest, in an effort to determine if these compounds could overcome such a block. Left-hand columns for each cell type represent cells with no additional treatment, while right-hand columns represent cells pretreated overnight with nocodazole (0.3 ug/mL) to induce G2/M arrest.

[3] = test system: LNCaP prostate carcinoma cells; assay: Flow cytometric analysis (sub-G1 peak); format: cell-based; conditions: 48 hours, MP-470 alone
Method: as §1

[4] = test system: c-Met autophosphorylation in NIH 3T3 cells; assay: Immunoblot for phospho-Met; format: cell-based
Method: MP-470 (Compound III-1-3) has inhibitory effects on a number of receptor tyrosine kinases. In order to evaluate these effects at the cellular level, immunoblot analysis was performed on lysates from cells treated with MP470, with or without the addition of the EGFR inhibitor Tarceva®. Lysates were assayed for general tyrosine kinase activity, as well as the specific phosphorylation of c-Met and Akt. Briefly, NIH 3T3 cells were pretreated with drugs as indicated for 4 hours, then treated with pervanadate for a further 30 minutes. Immunoblot detection was carried out with antibodies for phosphotyrosine, phospho-Met and phospho-Akt (S473), as well as total c-Met and Akt. Beta-actin was used as a loading control.

Aurora-A = Aurora-A (Homo sapiens, UniProt O14965); conditions: 0.1 μM ATP, 30 μM Kemptide
Method: [drawing 74] enzyme assays were performed using the Kinase-Glo™ Luminescent Kinase Assay from Promega Corporation (Madison, Wis.). The following conditions were used: [table] Enzymatic reactions were allowed to progress for 2 hours at 30° C., then assayed for kinase activity according to manufacturer protocol.

CDK1 = CDK1 (Homo sapiens, UniProt P06493); assay: Kinase-Glo Luminescent Kinase Assay (Examples 27, 33); format: biochemical
CDK1, sequence (P06493 whole entry, species assumed): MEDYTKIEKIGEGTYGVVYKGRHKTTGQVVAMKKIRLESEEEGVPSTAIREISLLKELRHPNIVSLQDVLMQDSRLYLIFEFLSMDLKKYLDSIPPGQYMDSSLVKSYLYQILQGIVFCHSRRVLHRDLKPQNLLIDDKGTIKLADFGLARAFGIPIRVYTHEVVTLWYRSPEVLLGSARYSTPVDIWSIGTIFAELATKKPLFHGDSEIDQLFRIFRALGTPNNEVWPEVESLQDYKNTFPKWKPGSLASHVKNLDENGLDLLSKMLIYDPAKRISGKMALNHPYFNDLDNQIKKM
CDK1, sequence (P14635 whole entry partner, species assumed): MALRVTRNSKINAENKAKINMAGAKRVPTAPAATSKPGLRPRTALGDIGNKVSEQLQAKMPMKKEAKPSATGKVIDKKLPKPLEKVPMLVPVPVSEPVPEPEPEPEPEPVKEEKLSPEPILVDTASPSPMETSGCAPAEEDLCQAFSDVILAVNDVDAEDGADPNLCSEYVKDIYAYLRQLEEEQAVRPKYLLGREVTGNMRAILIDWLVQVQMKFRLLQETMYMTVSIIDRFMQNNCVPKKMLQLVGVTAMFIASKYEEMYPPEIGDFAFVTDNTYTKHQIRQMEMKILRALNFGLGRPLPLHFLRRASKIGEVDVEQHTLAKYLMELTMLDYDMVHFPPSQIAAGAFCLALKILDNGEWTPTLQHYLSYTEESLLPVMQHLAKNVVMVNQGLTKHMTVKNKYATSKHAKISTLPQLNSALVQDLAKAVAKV
Method: (§2) The following conditions were used:
(§3) The protein serine-threonine kinases cAMP PK, MKK6 and Cdk1 were tested alongside Aurora-2 kinase to evaluate the activity of compound (II-2-6) against these protein kinases. Briefly, in this assay kinase activity is determined by quantifying the amount of ATP remaining in solution following the kinase reaction by measuring the relative light units (RLU) produced by luciferase using a luminometer. Percent activity was determined for individual compounds by comparing luminometer readings of drug-treated reactions to controls containing no drug (RLUNo Inhib) and no Aurora-2 enzyme (RLUNo Kinase) in the following equation: […]

MKK6 = MKK6 (Homo sapiens, UniProt P52564); assay: as above; format: biochemical
MKK6, sequence (P52564 whole entry, species assumed): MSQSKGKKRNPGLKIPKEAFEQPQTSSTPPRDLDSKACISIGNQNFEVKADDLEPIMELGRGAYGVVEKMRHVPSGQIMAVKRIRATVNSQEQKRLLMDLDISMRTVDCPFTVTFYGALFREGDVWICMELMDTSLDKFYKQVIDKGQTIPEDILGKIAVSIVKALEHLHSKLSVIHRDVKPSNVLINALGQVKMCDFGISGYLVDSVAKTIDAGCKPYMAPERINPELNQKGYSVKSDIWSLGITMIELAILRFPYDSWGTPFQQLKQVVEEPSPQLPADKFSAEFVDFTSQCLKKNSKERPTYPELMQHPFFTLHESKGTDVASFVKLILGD
Method: as §2, §3

cAMP-PK = cAMP-PK (Homo sapiens, UniProt P17612); assay: as above; format: biochemical
Method: as §2, §3

c-Kit = c-Kit (Homo sapiens, UniProt P10721); assay: c-kit kinase inhibitory activity (stated in Example 32); format: biochemical
c-Kit, sequence (P10721 26-976): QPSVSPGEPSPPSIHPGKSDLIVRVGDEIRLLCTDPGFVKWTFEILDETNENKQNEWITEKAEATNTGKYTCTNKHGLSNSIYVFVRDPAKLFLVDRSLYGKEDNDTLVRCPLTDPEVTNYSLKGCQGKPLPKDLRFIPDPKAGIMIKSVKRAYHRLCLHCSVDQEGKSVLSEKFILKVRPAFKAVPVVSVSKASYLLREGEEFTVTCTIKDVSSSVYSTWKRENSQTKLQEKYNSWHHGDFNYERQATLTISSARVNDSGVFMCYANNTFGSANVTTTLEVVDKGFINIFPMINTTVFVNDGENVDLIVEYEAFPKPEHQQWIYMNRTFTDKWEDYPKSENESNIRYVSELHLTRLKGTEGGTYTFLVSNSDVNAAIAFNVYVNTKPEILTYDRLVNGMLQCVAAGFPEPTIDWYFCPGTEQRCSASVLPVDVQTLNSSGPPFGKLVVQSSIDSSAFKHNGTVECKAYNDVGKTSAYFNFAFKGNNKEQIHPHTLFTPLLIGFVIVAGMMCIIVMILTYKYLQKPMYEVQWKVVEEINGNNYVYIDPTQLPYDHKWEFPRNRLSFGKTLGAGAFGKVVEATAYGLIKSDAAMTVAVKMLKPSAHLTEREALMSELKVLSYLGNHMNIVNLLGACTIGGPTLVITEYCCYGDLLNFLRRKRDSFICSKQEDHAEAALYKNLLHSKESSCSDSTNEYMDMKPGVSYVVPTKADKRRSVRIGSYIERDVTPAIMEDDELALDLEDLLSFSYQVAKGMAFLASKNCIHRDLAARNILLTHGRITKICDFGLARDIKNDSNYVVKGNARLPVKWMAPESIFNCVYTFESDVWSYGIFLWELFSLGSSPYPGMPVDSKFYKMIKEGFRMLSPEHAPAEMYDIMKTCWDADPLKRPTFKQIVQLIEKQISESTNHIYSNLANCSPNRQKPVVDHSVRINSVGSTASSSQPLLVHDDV

aurora-2 kinase inhibitory activity (in words) (aurora-2 kinase)	degree of inhibition of aurora-2 kinase activity (rank among tested compounds) (aurora-2 kinase)	IC50 (aurora-2 kinase) [µM]	aurora-2 kinase inhibitory activity (in words) (aurora-2 kinase; listed as II-2-6)	IC50 (Aurora-A) [µM]	IC50 (CDK1; CDK1, 0.1 μM ATP, 30 μM Kemptide) [µM]	kinase inhibitory activity (in words) (CDK1; Cdk1, FIG. 27)	IC50 (MKK6; MKK6, 0.1 μM ATP, 30 μM Kemptide) [µM]	kinase inhibitory activity (in words) (MKK6; MKK6, FIG. 27)	kinase inhibitory activity (in words) (cAMP-PK; cAMP PK, FIG. 27)	IC50 (cAMP-PK; cAMP-PK, 0.1 μM ATP, 30 μM Kemptide) [µM]	inhibitory activity against c-kit kinase (in words) (c-Kit)	Compound	Rad51 protein levels after exposure to IR [1]	activity against c-met (in words) (c-met)	activity against mutant forms of c-Kit (in words) (mutant forms of c-Kit)	apoptosis (sub-G1 peak) [2]	apoptosis (sub-G1 peak) [3]	activating autophosphorylation of c-Met ([4]; NIH 3T3, 4 hours, agent alone)	activating autophosphorylation of c-Met ([4]; NIH 3T3, MP-470 in combination with Tarceva®)
particularly effective inhibitors	second highest inhibition	4.7										COc1cc2ncnc(N3CCN(C(=S)Nc4ccc(S(=O)(=O)Nc5ncccn5)cc4)CC3)c2cc1OC [HPK16, 4-(6,7-Dimethoxy-quinazolin-4-yl)-piperazine-1-carbothioic acid [4-(pyrimidin-2-ylsulfamoly)-phenyl]-amide]							
												S=C(NCc1ccc2c(c1)OCO2)N1CCN(c2ncnc3c2oc2ccccc23)CC1 [HPK56, 4-Benzo[4,5]furo[3,2-d]pyrimidin-4-yl-piperazine-1-carbothioic acid (benzo[1,3]dioxol-5-ylmethyl)-amide]	remained low and near control level	low micromolar	low nanomolar	induced apoptosis	induced apoptosis	reduced	reduced
particularly effective inhibitors	highest inhibition	0.9	low nanomolar	0.9	22.3	inhibitory activity	6.2	inhibitory activity	inhibitory activity	> 100	low μM	COc1cc2[nH]c3ncnc(N4CCN(C(=S)Nc5ccc(S(=O)(=O)Nc6ncccn6)cc5)CC4)c3c2cc1OC [HPK62, 4-(6,7-Dimethoxy-9H-1,3,9-triaza-fluoren-4-yl)-piperazine-1-carbothioic acid [4-(pyrimidin-2-ylsulfamoyl)-phenyl]-amide]							
